The subject of data set [1] is Mtb. Put plainly: microbe, parasite or virus in culture. In kind it is cell-based, Mycobacterium tuberculosis. To be noted: Mycobacterium tuberculosis, read-out: MIC (I).
In data set [2] the test system is Mtb. Put plainly: microbe, parasite or virus in culture. In kind it is cell-based, Mycobacterium tuberculosis. To be noted: Mycobacterium tuberculosis, read-out: MIC (III).
Data set [3] can be described thus: in vitro. The settings on record: African green monkey.

The results in this text go back to patent US20160194299A1 (priority 2013, published 2016).

Converted amounts (≈) assume the structure as drawn. Like-named read-outs stand apart in the source and are kept apart here.

Regarding `CCOC(=O)NC(=O)c1ccsc1NC(=O)c1ccc2cnccc2n1` [Compound 113], the MIC in data set [1] was over 3 µg/mL; in data set [2], over 25 µg/mL. The same compound displayed a CC50 in data set [3] of over 50 µg/mL.

As to `CCOC(=O)NC(=O)c1ccsc1NC(=O)c1cc(OC)c2ccccc2n1` [Compound 114], the MIC was over 3 µg/mL in data set [1] and over 25 µg/mL in data set [2]. The CC50 in data set [3] is over 50 µg/mL.

Consider `CCOC(=O)NC(=O)c1ccsc1NC(=O)c1cc(O)nc2ccccc12` [Compound 115], for which the figures for the MIC in data set [1] and in data set [2] were over 3 µg/mL and over 25 µg/mL, respectively. Also, in data set [3], the CC50 was over 50 µg/mL.

Consider `CCOC(=O)NC(=O)c1ccsc1NC(=O)c1cc2ccccc2cn1` [Compound 116], for which the MIC in data set [1] is over 3 µg/mL; in data set [2] it was over 25 µg/mL. For the same compound, the CC50 in data set [3] is over 50 µg/mL.

As to `CCOC(=O)NC(=O)c1ccsc1NC(=O)c1cc(C(F)(F)F)nc2ccccc12` [Compound 117], the MIC in data set [1] was over 3 µg/mL; in data set [2], over 25 µg/mL. In data set [3], this compound showed a CC50 of under 25 µg/mL.

As to `CCOC(=O)NC(=O)c1ccsc1NC(=O)c1ccnc(NC(=O)C(C)(C)C)n1` [Compound 118], the MIC in data set [1] was over 3 µg/mL; in data set [2] it was 5 to 25 µg/mL (≈ 11.9 to 59.6 µM). In data set [3], this compound came in with a CC50 of over 50 µg/mL.

As for `CCOC(=O)NC(=O)c1ccsc1NC(=O)c1ccc2c(c1)CCCC2` [Compound 119], the results for the MIC in data set [1] and in data set [2] were over 3 µg/mL and over 25 µg/mL, respectively. This compound also yielded a CC50 in data set [3] of over 50 µg/mL.

As to `CCOC(=O)NC(=O)c1ccsc1NC(=O)c1cc2nc(C)cc(C)n2n1` [Compound 121], the MIC in data set [1] was over 3 µg/mL; in data set [2], over 25 µg/mL. The same compound displayed a CC50 in data set [3] of over 50 µg/mL.

Consider `CCOC(=O)NC(=O)c1ccsc1NC(=O)c1cc(C)nc2ccccc12` [Compound 122], for which the MIC is over 3 µg/mL in data set [1] and over 25 µg/mL in data set [2]. The compound further came in with a CC50 in data set [3] of over 50 µg/mL.

As for `CCOC(=O)NC(=O)c1ccsc1NC(=O)c1ccnc2ccc(OC)cc12` [Compound 123], the MIC in data set [1] was over 3 µg/mL; in data set [2] it was 5 to 25 µg/mL (≈ 12.5 to 62.6 µM). In data set [3], the CC50 is over 50 µg/mL.

For the compound `CCOC(=O)NC(=O)c1ccsc1NC(=O)c1cn2cccc(C#N)c2n1` [Compound 124], the MIC was over 3 µg/mL in data set [1] and under 5 µg/mL in data set [2]. For the same compound, in data set [3], the CC50 is over 50 µg/mL.

As to `CCOC(=O)NC(=O)c1ccsc1NC(=O)c1nc2ncccn2n1` [Compound 125], the MIC in data set [1] was over 3 µg/mL; in data set [2], 5 to 25 µg/mL (≈ 13.9 to 69.4 µM). The same compound had a CC50 in data set [3] of over 50 µg/mL.

As to `CCOC(=O)NC(=O)c1ccsc1NC(=O)c1nc(S(C)(=O)=O)ncc1Cl` [Compound 126], the MIC in data set [1] was over 3 µg/mL; in data set [2] it was over 25 µg/mL. In addition, the CC50 in data set [3] is under 25 µg/mL.

Take `CCOC(=O)NC(=O)c1ccsc1NC(=O)c1cnc(OC)cn1` [Compound 127]: the MIC is over 3 µg/mL in data set [1] and over 25 µg/mL in data set [2]. The same compound displayed a CC50 in data set [3] of over 50 µg/mL.

Take `CCOC(=O)NC(=O)c1ccsc1NC(=O)c1cnc(O)cn1` [Compound 129]: the MIC was over 3 µg/mL in data set [1] and over 25 µg/mL in data set [2]. Further, the CC50 in data set [3] was over 50 µg/mL.

As for `CCOC(=O)NC(=O)c1ccsc1NC(=O)c1nc(-c2ccccc2)oc1C` [Compound 130], the MIC was over 3 µg/mL in data set [1] and over 25 µg/mL in data set [2]. Further, in data set [3], the CC50 was over 50 µg/mL.

Take `CCOC(=O)NC(=O)c1ccsc1NC(=O)c1csc(C(F)(F)F)n1` [Compound 131]: the MIC was over 3 µg/mL in data set [1] and 5 to 25 µg/mL (≈ 12.7 to 63.6 µM) in data set [2]. Moreover, the CC50 in data set [3] is under 25 µg/mL.

For `CCOC(=O)NC(=O)c1ccsc1NC(=O)c1ccc2c(c1)CCO2` [Compound 132], the MIC in data set [1] is over 3 µg/mL; in data set [2] it was 5 to 25 µg/mL (≈ 13.9 to 69.4 µM). For the same compound, in data set [3], the CC50 is over 50 µg/mL.

On to `CCOC(=O)NC(=O)c1ccsc1NC(=O)c1csc(-c2ccccn2)n1` [Compound 133], for which the MIC in data set [1] was over 3 µg/mL; in data set [2] it was over 25 µg/mL. For the same compound, the CC50 in data set [3] is over 50 µg/mL.

Turning to `CCOC(=O)NC(=O)c1ccsc1NC(=O)c1sc(-c2ccncc2)nc1C` [Compound 135], the MIC was over 3 µg/mL in data set [1] and over 25 µg/mL in data set [2]. The compound further returned a CC50 in data set [3] of over 50 µg/mL.

Consider `CCOC(=O)NC(=O)c1ccsc1NC(=O)c1sc(-c2cccnc2)nc1C` [Compound 136], for which the MIC in data set [1] was over 3 µg/mL; in data set [2] it was over 25 µg/mL. The CC50 in data set [3] was over 50 µg/mL.

With `CCOC(=O)NC(=O)c1ccsc1NC(=O)c1sc(C)nc1C(F)(F)F` [Compound 137], the values for the MIC in data set [1] and in data set [2] were over 3 µg/mL and over 25 µg/mL, respectively. In data set [3], this compound displayed a CC50 of over 50 µg/mL.

As for `CCOC(=O)NC(=O)c1ccsc1NC(=O)c1nn(-c2ccccc2)nc1C` [Compound 138], the MIC in data set [1] was over 3 µg/mL; in data set [2], over 25 µg/mL. In data set [3], this compound gave a CC50 of over 50 µg/mL.

On to `CCOC(=O)NC(=O)c1ccsc1NC(=O)c1cccc2ncccc12` [Compound 139], for which the MIC was over 3 µg/mL in data set [1] and over 25 µg/mL in data set [2]. The CC50 in data set [3] is over 50 µg/mL.

With `CCOC(=O)NC(=O)c1ccsc1NC(=O)c1ccc(=O)n(C)c1` [Compound 140], the results for the MIC in data set [1] and in data set [2] were over 3 µg/mL and 5 to 25 µg/mL (≈ 14.3 to 71.6 µM), respectively. The same compound yielded a CC50 in data set [3] of over 50 µg/mL.

For the compound `CCOC(=O)NC(=O)c1ccsc1NC(=O)c1cnc2ccccn12` [Compound 142], the MIC was over 3 µg/mL in data set [1] and over 25 µg/mL in data set [2]. Also, the CC50 in data set [3] lay within 25 to 50 µg/mL (≈ 69.8 to 140 µM).

Consider `CCOC(=O)NC(=O)c1ccsc1NC(=O)C1CCc2ccccc2N1` (stereo not drawn) [Compound 143], for which the MIC is over 3 µg/mL in data set [1] and 5 to 25 µg/mL (≈ 13.4 to 66.9 µM) in data set [2]. The compound also had a CC50 in data set [3] of over 50 µg/mL.

Consider `CCOC(=O)NC(=O)c1ccsc1NC(=O)c1nc(C(F)(F)F)cs1` [Compound 144], for which the figures for the MIC in data set [1] and in data set [2] were over 3 µg/mL and over 25 µg/mL, respectively. The CC50 in data set [3] was over 50 µg/mL.

Take `CCOC(=O)NC(=O)c1ccsc1NC(=O)c1ccc2cnccc2c1` [Compound 145]: the figures for the MIC in data set [1] and in data set [2] were over 3 µg/mL and over 25 µg/mL, respectively. The compound also had a CC50 in data set [3] of over 50 µg/mL.

For the compound `CCOC(=O)NC(=O)c1c(C)csc1NC(=O)c1ccc2scnc2c1` [Compound 146], the results for the MIC in data set [1] and in data set [2] were over 3 µg/mL and over 25 µg/mL, respectively. The compound further showed a CC50 in data set [3] of over 50 µg/mL.

As to `CCOC(=O)NC(=O)c1ccsc1NC(=O)c1cc(O)ncn1` [Compound 147], the MIC in data set [1] was over 3 µg/mL; in data set [2], over 25 µg/mL. This compound yielded a CC50 in data set [3] of over 50 µg/mL.

As for `CCOC(=O)NC(=O)c1ccsc1NC(=O)c1cn2cc(C)ccc2n1` [Compound 208], the MIC in data set [1] was over 3 µg/mL; in data set [2], over 25 µg/mL. In addition, the CC50 in data set [3] was over 50 µg/mL.

Take `CCOC(=O)NC(=O)c1ccsc1NC(=O)c1nc2c(s1)CCCC2` [Compound 217]: the MIC was under 1 µg/mL in data set [1] and over 25 µg/mL in data set [2]. Also, in data set [3], the CC50 is over 50 µg/mL.

Consider `CCOC(=O)NC(=O)c1ccsc1NC(=O)c1nc2c(N3CCOCC3)ccnc2s1` [Compound 247], for which the MIC in data set [1] is under 1 µg/mL; in data set [2], 5 to 25 µg/mL (≈ 10.8 to 54.2 µM). This compound had a CC50 in data set [3] of 25 to 50 µg/mL (≈ 54.2 to 108 µM).

On to `CCOC(=O)NC(=O)c1ccsc1NC(=O)c1nc2c(N3CCOCC3)nccc2s1` [Compound 248], for which the figures for the MIC in data set [1] and in data set [2] were under 1 µg/mL and over 25 µg/mL, respectively. This compound also came in with a CC50 in data set [3] of over 50 µg/mL.

On to `CN1CCCN(C(=O)c2ccsc2NC(=O)c2nc3ccccc3s2)CC1` [Compound 254], for which the MIC in data set [1] is over 3 µg/mL; in data set [2] it was over 25 µg/mL. The compound further showed a CC50 in data set [3] of over 50 µg/mL.
